According to US20050130134A1, “Means and methods for monitoring non-nucleoside reverse transcriptase inhibitor antiretroviral therapy and guiding therapeutic decisions in the treatment HIV-AIDS” (ViroLogic, Inc., priority 2000, published 2005):
“Also recorded” adds a separate entry of the source.

Tests used:
[1] = system: RTV-1057 patient virus (RT A98G, Y181C); assay: Phenotypic susceptibility assay, RTV-1057 (patient 98-1057); type: cell-based, HIV-1
Description: (§1) Transfections were performed using a calcium-phosphate precipitation procedure. […] Cell lysates were assayed for luciferase activity (FIG. 3). […] The drug inhibition curves are shown in (FIG. 3).

[2] = system: RTV-757 patient virus (RT V106A, V108I, V189L); assay: Phenotypic susceptibility assay, RTV-757 (patient 98-757); type: cell-based, HIV-1; details: RTV-757 patient virus (same patient as RTV-1033, later time point)
Description: as §1

[3] = system: RTV-1058 clone 4 (RT K103N, Y188L); assay: Phenotypic susceptibility assay, RTV-1058 clone 4; type: cell-based, HIV-1
Description: as §1

[4] = system: RTV-1058 clone 5 (RT L100I, K103N); assay: Phenotypic susceptibility assay, RTV-1058 clone 5; type: cell-based, HIV-1
Description: as §1

[5] = system: RTV-1058 clone 10 (RT L100I, K103N, Y188L); assay: Phenotypic susceptibility assay, RTV-1058 clone 10; type: cell-based, HIV-1
Description: as §1

[6] = system: RTV-268 patient virus (RT P236L with M41L, D67N, M184V, L210W, T215Y, K219Q); assay: Phenotypic susceptibility assay, RTV-268 (patient 97-268); type: cell-based, HIV-1; details: RTV-268 patient virus compared to reference virus
Description: (§2) Resistance tests were carried out with resistance test vectors using two host cell types. Resistance test vector viral particles were produced by a first host cell (the resistance test vector host cell) that was prepared by transfecting a packaging host cell with the resistance test vector and the packaging expression vector. The resistance test vector viral particles were then used to infect a second host cell (the target host cell) in which the expression of the indicator gene is measured.
The resistance test vectors containing a functional luciferase gene cassette were constructed and host cells were transfected with the resistance test vector DNA. The resistant test vectors contained patient-derived reverse transcriptase and protease sequences that were either susceptible or resistant to the antiretroviral agents, such as nucleoside reverse transcriptase inhibitors, non-nucleoside reverse transcriptase inhibitors and protease inhibitors. The resistance test vector viral particles produced by transfecting the resistance test vector DNA into host cells, either in the presence or absence of protease inhibitors, were used to infect target host cells grown either in the absence of NRTI or NNRTI or in the presence of increasing concentrations of the drug. The amount of luciferase activity produced in infected target host cells in the presence of drug was compared to the amount of luciferase produced in infected target host cells in the absence of drug. Drug resistance was measured as the amount of drug required to inhibit by 50% the luciferase activity detected in the absence of drug (inhibitory concentration 50%, IC50). The IC50 values were determined by plotting percent drug inhibition vs. log10 drug concentration.
Host cells were seeded in 10-cm-diameter dishes and were transfected several days after plating with resistance test vector plasmid DNA and the envelope expression vector. Transfections were performed using a calcium-phosphate precipitation procedure. The cell culture media containing the DNA precipitate was replaced with fresh medium, from one to 24 hours, after transfection. Cell culture media containing resistance test vector viral particles was harvested one to four days after transfection and was passed through a […] filter before being stored at −80° C. HIV capsid protein (p24) levels in the harvested cell culture media were determined by an EIA method as described by the manufacturer (SIAC; Frederick, Md.). Before infection, target cells (293 and 293/T) were plated in cell culture media. Control infections were performed using cell culture media from mock transfections (no DNA) or transfections containing the resistance test vector plasmid DNA without the envelope expression plasmid. One to three or more days after infection the media was removed and cell lysis buffer (Promega) was added to each well. […] The inhibitory effect of the drug was determined using the following equation: % luciferase inhibition=1-(RLUluc[drug]÷RLUluc)×100 where RLUluc [drug] is the relative light unit of luciferase activity in infected cells in the presence of drug and RLUluc is the Relative Light Unit of luciferase activity in infected cells in the absence of drug. IC50 values were obtained from the sigmoidal curves that were generated from the data by plotting the percent inhibition of luciferase activity vs. the log10 drug concentration.
A resistance test vector was constructed as described in Example 1 from a patient sample designated 97-268. […] Isolation of viral RNA and RT/PCR was used to generate a patient derived segment that comprised viral sequences coding for all of PR and amino acids 1-313 of RT. The patient derived segment was inserted into a indicator gene viral vector to generate a resistance test vector designated RTV-268.

[7] = system: RTV-964 patient virus (RT Y181I); assay: Phenotypic susceptibility assay, RTV-964 (patient 98-964); type: cell-based, HIV-1
Description: as §1

[8] = system: HIV-1 reverse transcriptase Y188H (Y188H-RTV); details: >1 loss of susceptibility
Description: as §2
(§3) The resistance test vectors containing a functional luciferase gene cassette were constructed and host cells were transfected with the resistance test vector DNA. The resistant test vectors contained patient-derived reverse transcriptase and protease sequences that were either susceptible or resistant to the antiretroviral agents, such as nucleoside reverse transcriptase inhibitors, non-nucleoside reverse transcriptase inhibitors and protease inhibitors. […] The IC50 values were determined by plotting percent drug inhibition vs. log10 drug concentration.
(§4) Host cells were seeded in 10-cm-diameter dishes and were transfected several days after plating with resistance test vector plasmid DNA and the envelope expression vector. […] HIV capsid protein (p24) levels in the harvested cell culture media were determined by an EIA method as described by the manufacturer (SIAC; Frederick, Md.). […]

[9] = system: HIV-1 reverse transcriptase K103N + Y188L (K103N-Y188L-RTV); assay: Phenotypic susceptibility assay, site directed mutant K103N-Y188L-RTV; type: cell-based; details: >1 loss of susceptibility
Description: as §2, §3, §4

[10] = system: HIV-1 reverse transcriptase L100I + K103N (L100I-K103N-RTV); assay: Phenotypic susceptibility assay, site directed mutant L100I-K103N-RTV; type: cell-based; details: >1 loss of susceptibility
Description: as §2, §3, §4

[11] = system: HIV-1 reverse transcriptase L100I + K103N + Y188L (L100I-K103N-Y188L-RTV); assay: Phenotypic susceptibility assay, site directed mutant L100I-K103N-Y188L-RTV; type: cell-based; details: >1 loss of susceptibility
Description: as §2, §3, §4

[12] = system: Tyr181Cys (Y181C) mutation of HIV RT; details: cited from earlier work

Compound | decrease in susceptibility [1] [fold] | decrease in susceptibility [2] | loss of susceptibility [3] | loss of susceptibility [4] [fold] | loss of susceptibility [5] | change in susceptibility / resistance [6] | decrease in susceptibility [7] [fold] | fold change in susceptibility compared to wild type control RTV [8] [fold] | fold change in susceptibility compared to wild type control RTV [9] | fold change in susceptibility compared to wild type control RTV [10] [fold] | fold change in susceptibility compared to wild type control RTV [11] | reduction in sensitivity [12] [fold]
CC(C)Nc1cccnc1N1CCN(C(=O)c2cc3cc(NS(C)(=O)=O)ccc3[nH]2)CC1 [delavirdine] | 35 | 10 fold | 85 fold | 250 | greater than 250 fold |  |  |  |  |  |  | 
Cc1ccnc2c1NC(=O)c1cccnc1N2C1CC1 [nevirapine] | 610 | greater than 800 fold | greater than 800 fold | 120 | greater than 800 fold | no change; also recorded: the same as wild type | 750 | 3.5 | greater than 800 fold | 70 | greater than 800 fold | 100
